According to a compilation of properties of binary mixtures (doi:10.1007/s10973-016-5820-0):

Test: xn = mol fraction of the nth substance listed
Conditions: 100 kPa

O=C1CCCCC1 + CCCC[n+]1ccn(C)c1.F[B-](F)(F)F
speed of sound [m/s]
Conditions	293.15 K	298.15 K	303.15 K	308.15 K
x2 = 0	1431.2	–	1395.1	1375.1
x2 = 0.0736	1425.9	1409.5	1390.7	–
x2 = 0.1128	1424.7	1408.5	–	–
x2 = 0.1597	1424.6	–	1390.2	1371.2
x2 = 0.2045	–	1409.9	1391.8	1373
x2 = 0.2459	–	1412.1	1394.2	1375.6
x2 = 0.2933	1431.3	–	–	1379.7
x2 = 0.3481	1436.6	1421.1	1403.7	–
x2 = 0.3956	1442.2	1426.9	1409.8	1392
x2 = 0.4429	1448.6	1433.5	1416.7	1399.3
x2 = 0.4937	1456.5	1441.6	1425.2	1408.1
x2 = 0.5344	1463.5	1448.7	1432.6	1415.8
x2 = 0.5938	1474.6	1460.1	1444.5	1428.2
x2 = 0.6557	1487.3	1473.1	–	1442.4
x2 = 0.7028	1497.8	1483.8	1469.3	1454
x2 = 0.7409	1506.7	1493	–	–
x2 = 0.7973	1520.6	1507.2	1493.7	1479.5
x2 = 0.8564	1536.1	1523	1510.2	1496.7
x2 = 0.9047	1549.6	1536.7	1524.4	–

CCCC[n+]1ccn(C)c1.F[B-](F)(F)F + O=C1CCCCC1
x1 = 1
Conditions	speed of sound [m/s]
293.15 K	1578.1
298.15 K	1565.5
303.15 K	1554.1
308.15 K	1542.3
